Data from US20240197869A1, “HYPERACTIVATORS OF MAMMALIAN DENDRITIC CELLS” (Corner Therapeutics, Inc., priority 2021, published 2024).

How the values were obtained:
[1] = tested on: human monocyte-derived dendritic cells (moDCs); test: DAMP screen: IL-1β secretion by LPS-activated human moDCs (ELISA); format: cell-based
Method: Danger-Associated Molecular Pattern (DAMP) Screen.
(§1) Quantification of IL-1beta Secretion. IL-1beta secretion was assessed using the ELISA MAX Deluxe Set Human IL-1beta kit (Biolegend). ELISAs were performed according to manufacturer's instructions with the following modifications: i) total sample volume for incubation was reduced from […] the top standard was prepared at […], with two-fold dilutions to […]; and iii) sample incubation was completed overnight at 4 C on an orbital shaker. […] To determine IL-1beta concentration in supernatants, sample IL-1beta concentrations were interpolated using a standard curve via 4PL analysis on GraphPad Prism 9 (GraphPad Software). The interpolated results of samples were then adjusted for any dilutions made to the supernatant.

[2] = tested on: human monocyte-derived dendritic cells (moDCs); test: DAMP screen: viability of human moDCs (CellTiter-Glo)
Method: Danger-Associated Molecular Pattern (DAMP) Screen. After 6 days of differentiation into moDC, cells were collected and counted. Cells were plated at 100,000 cells/well in R10 media in 96-well flat bottom tissue culture-treated plates. LPS, serotype O55:B5 (Enzo Life Sciences) was added to a final concentration of 1 μg/mL in each well. […] Cells were incubated at 37° C., 5% CO2 for two days. Cell cultures were then used for endpoint analyses.
Endpoint Analyses. After culturing moDCs with PAMPs and DAMPs for two days, supernatant and cell samples were collected for analysis.
(§2) Quantification of Cell Viability. Cell viability was assessed by quantifying the presence of ATP as an indicator of metabolically active cells using the CellTiter-Glo Luminescent Cell Viability Assay (Promega). Metabolic activity was assessed following manufacturer's instructions. The CellTiter-Glo reagent was mixed with the cell pellets and remaining supernatant, and transferred to a white, opaque 96-well plate. Luminescence was measured on all wavelengths on a Spectramax iD3 plate reader (Molecular Devices) using an integration time of 500 ms. Percent viability was calculated relative to the control condition of moDCs treated with LPS.

[3] = tested on: human monocyte-derived dendritic cells (moDCs); test: Lipid titration: IL-1β secretion by LPS-activated human moDCs; format: cell-based; details: for Activity Units (AU) ± SD (lipid activity index): reciprocal of lowest concentration giving IL-1β two-fold over LPS x highest IL-1β signal
Method: as §1

[4] = tested on: human monocyte-derived dendritic cells (moDCs); test: Lipid titration: viability of human moDCs (CellTiter-Glo); details: 10.3 μM lipid + LPS 1 μg/mL, 2 days; relative to LPS-treated moDCs; Table 1-5
Method: Lipid Titration. After 6 days of differentiation into moDC, cells were collected and counted. Cells were replated at 100,000 cells/well in R10 media in 96-well flat bottom tissue culture-treated plates. LPS, serotype 055:B5 (Enzo Life Sciences) was added to a final concentration of 1 μg/mL in each well. After the addition of LPS, lipids were prepared. […] After two days of culture, cell cultures were used for endpoint analyses.
Endpoint Analyses. After culturing moDCs with PAMPs and DAMPs for two days, supernatant and cell samples were collected for analysis. Cells in culture were pelleted by centrifugation at 400×g for 5 min.
as §2
Statistical Analyses. […] For each tested condition, cells from each donor were plated to be tested in triplicate.

[5] = 41.3 μM lipid + LPS 1 μg/mL, 2 days, Table 1-2
[6] = 41.3 μM lipid + LPS 1 μg/mL, 2 days, relative to LPS-treated moDCs, Table 1-2
[7] = 82.5 μM lipid + LPS 1 μg/mL, 2 days, relative to LPS-treated moDCs, Table 1-1
[8] = 10.3 μM lipid + LPS 1 μg/mL, 2 days, Table 1-5
[9] = 20.6 μM lipid + LPS, human moDCs, 4 donors, mean (SD in wrapped line below)
[10] = 82.5 μM lipid + LPS, selected lipids, Table 1-3 (repeats Table 1-1)

Compound	IL-1β secretion [1, 5] [pg/mL]	Relative Viability (%) ± SD [2, 6] [%]	Relative Viability (%) ± SD [2, 7] [%]	IL-1β secretion [3, 8] [pg/mL]	IL-1β secretion [3, 9] [pg/mL]	IL-1β secretion [1, 10] [pg/mL]	Relative Viability (%) ± SD [4] [%]	Relative Viability (%) ± SD [2, 10] [%]	lipid activity index, ranking in words ([3]; lipid 1.3-82.5 μM + LPS)	Activity Units (AU) ± SD (lipid activity index) ([3]; lipid 1.3-82.5 μM + LPS) [AU]
CCCCCCCCCCCCCCCCCC(=O)O[C@H](COC(=O)CCCCCCCCCCCCC)COP(=O)([O-])OCC[N+](C)(C)C [14:0-18:0 PC]	24.0	100.0	90.5							
CCCCCC(=O)OC[C@@H](O)COP(=O)([O-])OCC[N+](C)(C)C [06:0 LYSO PC]	48.2	96.1	92.8							
CCCCCCC(=O)OC[C@@H](O)COP(=O)([O-])OCC[N+](C)(C)C [07:0 LYSO PC]	36.0	97.9	93.9							
CCCCCCCCCCCCCCCC(=O)OC[C@@H](O)COP(=O)([O-])OCC[N+](C)(C)C [16:0 LYSO PC, 1-palmitoyl-2-hydroxy-sn-glycero-3-phosphocholine]	97.4	87.2	44.7							
CCCCCCCCCCCCCCCCCCCCCCCC(=O)OC[C@@H](O)COP(=O)([O-])OCC[N+](C)(C)C [24:0 LYSO PC, 1-lignoceroyl-2-hydroxy-sn-glycero-3-phosphocholine]	38.8	94.6	96.0	36.5	36.6	39.7	96.8	96.0		
CCCCCCCC(=O)OC[C@@H](O)COP(=O)([O-])OCC[N+](C)(C)C [08:0 LYSO PC]	32.2	96.7	95.3							
CCCCCCCC/C=C\CCCCCCCC(=O)O[C@H](CO)COP(=O)([O-])OCC[N+](C)(C)C [2-18:1 Δ9 LYSO PC, 1-hydroxy-2-oleoyl-sn-glycero-3-phosphocholine]	45.0	100.6	97.7							
CCCCCCCCCCC(=O)OC[C@@H](O)COP(=O)([O-])OCC[N+](C)(C)C [11:0 LYSO PC]	39.3	94.9	92.8							
CCCCCC/C=C\CCCCCCCCC(=O)OC[C@@H](O)COP(=O)([O-])OCC[N+](C)(C)C [17:1 Δ^10 LYSO PC, 1-(10Z-heptadecenoyl)-2-hydroxy-sn-glycero-3-phosphocholine]	42.7	97.2	95.3							
CCCCCCCCCCCCCCCC(=O)O[C@H](CO)COP(=O)([O-])OCC[N+](C)(C)C [2-16:0 LYSO PC, 1-hydroxy-2-palmitoyl-sn-glycero-3-phosphocholine]	93.0	87.2	43.9							
CCCCCCCCCCCCCCCCCCC(=O)OC[C@@H](O)COP(=O)([O-])OCC[N+](C)(C)C [19:0 LYSO PC, 1-nonadecanoyl-2-hydroxy-sn-glycero-3-phosphocholine]	468.9	39.4	2.7	43.0	55.6	209.3	96.4	2.7	followed by 19:0 Lyso PC	6.34 ± 3.39
CCCCCCCCCCCCCCC(=O)OC[C@@H](O)COP(=O)([O-])OCC[N+](C)(C)C [15:0 LYSO PC, 1-pentadecanoyl-2-hydroxy-sn-glycero-3-phosphocholine]	150.3	90.8	65.4							
CCCCCCCCCCCCCCCCCC(=O)OC[C@H](COP(=O)([O-])OCC[N+](C)(C)C)OC(=O)CCCCCCCCCCCCCCC [18:0-16:0 PC]	20.1	100.3	85.3							
CCCCCCCCCCCCCCCC(=O)OC[C@H](COP(=O)([O-])OCC[N+](C)(C)C)OC(=O)CCCCCCCCCCC(CCCCCC)OC(=O)CCCCCCCCCCCCCCC (some centres unmarked) [16:0-(12-PAHSA) PC]	37.0	98.3	96.9							
CCCCCCCC/C=C\CCCCCCCC(=O)OC[C@@H](O)COP(=O)([O-])OCC[N+](C)(C)C [18:1 Δ^9 LYSO PC]	34.8	97.8	91.5							
CCCCCCCCCCCCCCCC(=O)OC[C@H](COP(=O)([O-])OCC[N+](C)(C)C)OC(=O)CCCCCCCCCCCCC [16:0-14:0 PC]	42.2	101.0	87.4							
CCCCCCCCCCCCCCCCCC(=O)OC[C@H](COP(=O)([O-])OCC[N+](C)(C)C)OC(=O)CCCCCCCCCCCCC [18:0-14:0 PC]	31.2	98.1	86.1							
CCCCCCCCCCCCCCCC(=O)O[C@H](COC(=O)CCCCCCCCCCCCC)COP(=O)([O-])OCC[N+](C)(C)C [14:0-16:0 PC]	32.7	97.1	90.8							
CCCCCCCCCCCCCCCCCC(=O)O[C@H](CO)COP(=O)([O-])OCC[N+](C)(C)C [2-18:0 LYSO PC, 2-stearoyl-sn-glycero-3-phosphocholine]	225.0	65.3	11.5							
CCCCCCCCCCCCCCCCCC(=O)O[C@H](COC(=O)CCCCCCCCCCCCCCC)COP(=O)([O-])OCC[N+](C)(C)C [16:0-18:0 PC]	26.3	97.7	88.8							
CCCCCCCCCCCCC(=O)OC[C@@H](O)COP(=O)([O-])OCC[N+](C)(C)C [13:0 LYSO PC, 1-tridecanoyl-2-hydroxy-sn-glycero-3-phosphocholine]	80.7	93.9	93.2							
CCCCCCCCC(=O)OC[C@@H](O)COP(=O)([O-])OCC[N+](C)(C)C [09:0 LYSO PC]	31.3	98.2	95.4							
CCCCCCCCCCCCCCCCCCCC(=O)OC[C@@H](O)COP(=O)([O-])OCC[N+](C)(C)C [20:0 LYSO PC, 1-arachidoyl-2-hydroxy-sn-glycero-3-phosphocholine]	168.7	75.2	6.0							
CCCCCCCC/C=C\CCCCCCCC(=O)O[C@H](COC(=O)CCCCCCCCCCCCCCC)COP(=O)([O-])OCC[N+](C)(C)C [16:0-18:1 PC (POPC)]	28.2	96.5	92.9							
CCCCCCCCCCCC(=O)OC[C@@H](O)COP(=O)([O-])OCC[N+](C)(C)C [12:0 LYSO PC]	54.5	96.6	91.1	43.1	44.2	115.3	97.3	91.1		
CCCCCCCCCCCCCCCCCCCCCCCCCC(=O)OC[C@@H](O)COP(=O)([O-])OCC[N+](C)(C)C [26:0 LYSO PC]	43.1	93.3	94.7							
CCCCCCCCCCCCCCCC(=O)OC[C@H](COP(=O)([O-])OCC[N+](C)(C)C)OC(=O)CCCC=O [POVPC, 1-palmitoyl-2-(5′-oxo-valeroyl)-sn-glycero-3-phosphocholine, reference compound]	121.5	92.1	79.5	49.1	60.6	168.5	97.3	79.5		0.00 ± 0.00
CCCCCCCCCCCCCCCC(=O)OC[C@H](COP(=O)([O-])OCC[N+](C)(C)C)OC(=O)CCCCCCCC(=O)O [PAzePC, 1-palmitoyl-2-azelaoyl-sn-glycero-3-phosphocholine, reference compound]	191.7	95.6	78.8	47.9	59.0	153.4	98.0	78.8		1.81 ± 1.95
